# Source: patent US11692175B2, “Methods for generation of pluripotent and multipotent cells” (The USA, as represented by the Secretary, Dept. of Health …, priority 2012, dated 2023)
# “And” between values parts separate entries of the source, which are not always exact repeats. Equal values may be shown once.
# Experiments:
# HUVEC [1] = assay: MTS proliferation assay of treated HUVEC; format: cell-based, human; conditions: 6 days post-treatment
# Method: Cell proliferation assays: Equal numbers of mouse lung endothelial cells from WT and CD47 (Passage 1) were plated in 96 well plates using RPMI+1% FBS. After 72 hours, net cell proliferation was assessed by the increase in formazan absorbance versus controls assessed at time 0 using Cell Titer 96R aqueous MTS kit (Promega, Madison, Wis.). DNA synthesis was measured using a BrdU Assay (EMD Biosciences, Billerica, Mass.).
# Proliferative capacities of the treated HUVEC (CD47 morpholino, 7N3 peptide, or 604 control peptide) were assessed using MTS assays.
# WT Jurkat T cells = assay: QPCR analysis of c-Myc mRNA in WT Jurkat T cells treated with CD47 binding peptides; format: cell-based, human; conditions: for c-Myc expression (FIG. 21B): 1 μM or 10 μM
# Method: FIGS. 21A and B are a pair of graphs showing QPCR analysis of c-Myc mRNA expression. WT Jurkat T cells were treated with the CD47 binding peptide 459 (also known as peptide 4N1) or control peptide 761 at 1 μM or 0.1 μM (FIG. 21A). WT Jurkat T cells were also treated with the CD47-binding peptide 7N3 or the control peptide 604 at 1 μm or 10 μM (FIG. 21B).
# (§1) RNA extraction and Real Time PCR: Total RNA was extracted using TRIzol® reagent (Invitrogen, Rockville, Md.) 24-36 hours after transfection or as indicated. Harvested mouse tissues were frozen in liquid nitrogen or placed into RNA Later™ RNA Stabilization Reagent (Ambion, Life Technologies, Grand Island, N.Y.). Whole organs (lungs, spleen, kidney, testis, skeletal muscle, brain, heart, and liver) were homogenized in TRIzol® reagent, and RNA was isolated, cDNA was prepared using First Maxima First Strand cDNA Synthesis kit for RT-qPCR (Fermentas Life Sciences, Glen Burnie, Md.). Real Time PCR was performed using the primers listed herein as SEQ ID NOs: 3-34, and SYBR Green PCR master reaction mix (AB applied Sciences, Life Technologies, Grand Island, N.Y.) on an MJ Research OPTICON I instrument (Bio-Rad) with the following amplification program: 95° C. for 15 minutes, followed by 40 cycles of 95° C. for 15 seconds, 58° C. for 20 seconds, 72° C. for 25 seconds, and 7° C. for 1 minute. Melting curves were performed for each product from 30° C. to 95° C. reading every 0.5° C. with a 6-second dwell time. The fold changes in mRNA expression were calculated by normalizing to hypoxanthine phosphoribosyltransferase (HPRT1) and TATA-box binding protein associated factor (TAF9) for mouse tissues and endothelial cells, or β-2 microglobulin (B2M) mRNA levels for spleen and isolated splenocytes. B2M was used for normalization of mRNA levels in human cells. Note that the total RNA yield per cell was higher for all CD47-null and CD47-deficient cells and tissues as compared to WT.
# Jurkat T cells = assay: c-Myc mRNA in Jurkat T cells treated with thrombospondin-1 or CD47-binding peptide (real time PCR); format: cell-based, human; conditions: for c-Myc levels (FIG. 7E): CD47-binding peptide vs control peptide
# Method: as §1
# Modulation of stem cell transcription factors by thrombospondin-1: Jurkat and JinB8 cells were centrifuged and re-suspended in RPMI+1% FBS at 10^6 cells/ml. Cells were plated in 12 well plates and treated with 1 μg/ml (2.2 nM) TSP1 using the indicated times and concentrations, and total RNA was isolated using TRIzol® reagent.
# TSP1 null cells = assay: Sustained proliferation of TSP1 null murine lung endothelial cells; format: cell-based, mouse; conditions: relative to WT cells
# Excerpt: Cell culture and reagents: Thrombospondin-1 null (Lawler et al., J Clin Invest 101, 982-992, 1998) CD47 null mice (Lindberg et al., Science 274, 795-798, 1996) extensively back-crossed onto a C57Bl/6J background and WT mice were maintained in a pathogen-free environment according to protocols approved by the NCI Animal Care and Use Committee. Mouse lung endothelial cells were isolated and their purity verified as described previously (Zhou et al., Oncogene 25, 536-545, 2006). These conditions were previously documented to reproducibly yield >95% pure endothelial cells at passage two (CD31+, smooth muscle actin-). Mouse lung endothelial cells were cultured at 37° C. with 5% CO2 using Endothelial Growth Medium-2 (EGM2) (Thermo Scientific Fisher. Inc., Waltham, Mass.). Cell populations from mouse spleens were separated using the Pan T cell Isolation (130-095-130), CD4 (L3T4) (130-049-201), CD8a (Ly-2) (130-049-401) CD11b (130-049-601), CD19 microbead kits (130-052-201) (MACS, Miltenyi Biotech Germany).
# (§2) Human umbilical vein endothelial cells (HUVEC), which express CD47, normally become senescent with repeated passage in tissue culture (FIG. 16A).
# HUVECs = assay: Real-time PCR of HUVECs treated for three weeks with neural medium and 7N3 peptide or B6H12 antibody; format: cell-based, human
# Method: as §1, with “WT. […]” for “WT.”
# HUVEC [2] = assay: Sustained proliferation / self-renewal of HUVEC in continuous culture; format: cell-based, human; conditions: 7N3 10 μM; B6H12 1 μg/ml
# Excerpt: as §2
# Therefore, antisense suppression of CD47 is sufficient to induce reprogramming of primary endothelial cells of a mesodermal lineage into an ectodermal lineage.
# [3] = test system: JinB8 cells re-expressing CD47; assay: c-Myc expression in JinB8 cells re-expressing CD47 treated with thrombospondin-1; format: cell-based, human; conditions: CD47 re-expressed in JinB8 cells
# Method: JINB8 cells were transfected with CD47-V5 construct using Amaxa™ Nucleofector™ (Lonza) non-viral transfection technology. The transfection efficiency was determined by flow Cytometry. The CD47-V5 transfected cells were purified using magnetic beads bound with human CD47 antibody (B6H12). The transfected cells were loaded onto MACS column which was placed in the magnetic field of a MACS® separator (Miltenyi Biotec). The magnetic bead labeled CD47^+ cells were retained on the column. The unlabeled cells ran through and were depleted from CD47^+ cells. After removal of the column, the CD47^+ cells bound to magnetic beads were eluted. The pure population of CD47^+ cells was stably cultured using G418 (250 μg/ml). The pure population of CD47^+ and Jurkat cells were centrifuged and re-suspended in RPMI with 1% FBS at 10^6 cells/ml. Cells were plated in 12 well plates and treated with 1 μg/ml (2.2 nM) thrombospondin-1, and total RNA was isolated using TRIzol®. The relative gene expression of c-MYC was measured using GAPDH as a control.
# JinB8 cells = assay: c-Myc mRNA in CD47-deficient JinB8 cells treated with thrombospondin-1; format: cell-based, human; conditions: Jurkat cells lacking CD47; at 24 hours
# Method: as §1, with “B2M was used for normalization of mRNA levels in human cells. Note that the total RNA yield per cell was higher for all CD47-null and CD47-deficient cells and tissues as compared to WT.” left out
# Human rTEC = assay: RT-PCR of self-renewal genes in human renal tubular epithelial cells; format: cell-based
# Method: FIG. 25 is a series of graphs showing that blockade of CD47 elevates self-renewal transcription factors in human renal cells. Human rTEC were treated with TSp1 (2.2 nmol/L)±a CD47 monoclonal Ab (clone B6H12, 1 μg/ml) and RT-PCR performed for the indicated targets (top, c-Myc; middle. Sox2; bottom, Klf4). Results are the mean (±S.E.M.) of three separate experiments.
# TSP1 inhibits self-renewal signals in primary human renal tubular epithelial cells, and CD47 blockade therapy elevates self renewal genes in human renal cells: It is not clear what role the TSP1-CD47 signal cascade played on self-renewal signaling in specific renal cell types. We wanted to confirm in human cells that activation of CD47 inhibits self-renewal genes. Renal tubular epithelial cells (rTEC) are a primary source of injury in the kidney. Human rTEC were treated with a low concentration of exogenous TSP1 (2.2 nmol/L) and found suppression of self-renewal genes including cMyc and Sox2 and Klf4 (FIG. 25). […] Thus, in human renal cells CD47 blockade increases the stem cell-pluripotent capacity of renal cells.
# [4] = real-time PCR, HUVECs three weeks in neural medium, two values per treatment
substance,measurement,setting,value
FIRGGMYEGKK (Synthetic peptide 604) [compound 604],proliferation (MTS),HUVEC [1],decreased proliferation
same,c-Myc expression (FIG. 21B),WT Jurkat T cells,did not
same,c-Myc levels (FIG. 7E),Jurkat T cells,inactive
FIRVVMYEGKK (Synthetic peptide 7N3),proliferation (MTS),HUVEC [1],enhanced proliferation
same,c-Myc expression (FIG. 21B),WT Jurkat T cells,more dramatic increase
same,proliferative response,TSP1 null cells,their response was less than the WT cells
same,"expression of mRNAs encoding c-Myc and other stem cell transcription factors (Sox2, Klf4, Oct4) and nestin","HUVECs; EBM serum free (neural basal) medium for 3 weeks, in words",high expression
same,Oct4 C(t),HUVECs; [4],34.48 and 34
same,c-Myc C(t),HUVECs; [4],30.19 and 18.49
same,klf4 C(t),HUVECs; [4],26.31 and 26.17
same,nestin C(t),HUVECs; [4],31.6104 and 31.32
same,sox2 C(t),HUVECs; [4],28.09 and 29
same,sustained proliferation,HUVEC [2],dramatically increased
same,c-Myc levels (FIG. 7E),Jurkat T cells,suppression
RFYVVMWK (Synthetic peptide - 4N1) [compound 459],c-Myc mRNA expression (FIG. 21A),"WT Jurkat T cells; 0.1 μM, at 72 hours, relative to control peptide 761",significantly increased
TSP1: Human TSP1 purified from the supernatant of thrombin-activated platelets; CD47 ligand,c-Myc expression,[3],reduces c-MYC expression
same,c-Myc expression,[3]; listed as thrombospondin-1,restored the ability of thrombospondin-1 to inhibit c-Myc expression
same,c-Myc mRNA levels,JinB8 cells,not significantly inhibited
same,expression of self-renewal transcription genes,"Human rTEC; TSP1 2.2 nM, low passage cells",decreased expression of self-renewal transcription genes
same,Klf4 expression,"Human rTEC; TSP1 2.2 nmol/L, B6H12 1 μg/ml",suppression
same,Sox2 expression,"Human rTEC; TSP1 2.2 nmol/L, B6H12 1 μg/ml",suppression
same,cMyc expression,"Human rTEC; TSP1 2.2 nmol/L, B6H12 1 μg/ml",suppression
same,"c-Myc levels, time course",Jurkat T cells; 2.2 nM thrombospondin-1,transiently induced but then strongly inhibited
same,c-MYC expression (FIG. 14D),Jurkat T cells; Jurkat cells,reduces c-MYC expression
same,concentration sufficient to inhibit c-Myc expression,Jurkat T cells; at 24 hours,Picomolar concentrations
